Results reported in the NIST ThermoML archive (doi:10.1021/je100033s).
± gives the expanded uncertainty stated by the source.

Experiments:
[1] = Liquid; for mass density: 101.33 kPa, Pycnometric method; for Normal boiling temperature: Ebulliometric method (Recirculating still)
[2] = refractive index (Na D-line) (dimensionless); conditions: 101.33 kPa, Liquid, Standard Abbe refractometry

SMILES	mass density ([1]; 298.1 K)	Normal boiling temperature [1]	refractive index ([2]; 298.1 K)	mass density ([1]; 293.1 K)	refractive index ([2]; 293.1 K)
C[S+](C)[O-] [dimethyl sulfoxide]	1096.1 ± 1 kg/m3	188.91 ± 0.2 °C	1.4775 ± 0.0007	–	–
CCCO [propan-1-ol]	–	97.09 ± 0.2 °C	–	804 ± 0.7 kg/m3	1.386 ± 0.0007
CC#N [acetonitrile]	–	81.50 ± 0.2 °C	–	783.1 ± 0.7 kg/m3	1.3449 ± 0.0007
